Measurements from ChEMBL document CHEMBL6134915, “Novel Sulfonamide Derivatives as Nav1.5 Sodium Channel Blockers for Treating Atrial Fibrillation” (ACS Med Chem Lett, 2025).

Experiments:
Format in all cases: cell-based
[1] = target: T1, Sodium channel protein type 5 subunit alpha (Homo sapiens, UniProt Q14524); assay: Inhibition of human Nav1.5 expressed in CHO-K1 cells preincubated for 3 mins followed by incubation under atrial fibrillation-mimicking condition at 5 Hz with -85 mV holding potential for 12 sec by automated Qpatch electrophysiological recording
T1 sequence (Q14524 whole entry): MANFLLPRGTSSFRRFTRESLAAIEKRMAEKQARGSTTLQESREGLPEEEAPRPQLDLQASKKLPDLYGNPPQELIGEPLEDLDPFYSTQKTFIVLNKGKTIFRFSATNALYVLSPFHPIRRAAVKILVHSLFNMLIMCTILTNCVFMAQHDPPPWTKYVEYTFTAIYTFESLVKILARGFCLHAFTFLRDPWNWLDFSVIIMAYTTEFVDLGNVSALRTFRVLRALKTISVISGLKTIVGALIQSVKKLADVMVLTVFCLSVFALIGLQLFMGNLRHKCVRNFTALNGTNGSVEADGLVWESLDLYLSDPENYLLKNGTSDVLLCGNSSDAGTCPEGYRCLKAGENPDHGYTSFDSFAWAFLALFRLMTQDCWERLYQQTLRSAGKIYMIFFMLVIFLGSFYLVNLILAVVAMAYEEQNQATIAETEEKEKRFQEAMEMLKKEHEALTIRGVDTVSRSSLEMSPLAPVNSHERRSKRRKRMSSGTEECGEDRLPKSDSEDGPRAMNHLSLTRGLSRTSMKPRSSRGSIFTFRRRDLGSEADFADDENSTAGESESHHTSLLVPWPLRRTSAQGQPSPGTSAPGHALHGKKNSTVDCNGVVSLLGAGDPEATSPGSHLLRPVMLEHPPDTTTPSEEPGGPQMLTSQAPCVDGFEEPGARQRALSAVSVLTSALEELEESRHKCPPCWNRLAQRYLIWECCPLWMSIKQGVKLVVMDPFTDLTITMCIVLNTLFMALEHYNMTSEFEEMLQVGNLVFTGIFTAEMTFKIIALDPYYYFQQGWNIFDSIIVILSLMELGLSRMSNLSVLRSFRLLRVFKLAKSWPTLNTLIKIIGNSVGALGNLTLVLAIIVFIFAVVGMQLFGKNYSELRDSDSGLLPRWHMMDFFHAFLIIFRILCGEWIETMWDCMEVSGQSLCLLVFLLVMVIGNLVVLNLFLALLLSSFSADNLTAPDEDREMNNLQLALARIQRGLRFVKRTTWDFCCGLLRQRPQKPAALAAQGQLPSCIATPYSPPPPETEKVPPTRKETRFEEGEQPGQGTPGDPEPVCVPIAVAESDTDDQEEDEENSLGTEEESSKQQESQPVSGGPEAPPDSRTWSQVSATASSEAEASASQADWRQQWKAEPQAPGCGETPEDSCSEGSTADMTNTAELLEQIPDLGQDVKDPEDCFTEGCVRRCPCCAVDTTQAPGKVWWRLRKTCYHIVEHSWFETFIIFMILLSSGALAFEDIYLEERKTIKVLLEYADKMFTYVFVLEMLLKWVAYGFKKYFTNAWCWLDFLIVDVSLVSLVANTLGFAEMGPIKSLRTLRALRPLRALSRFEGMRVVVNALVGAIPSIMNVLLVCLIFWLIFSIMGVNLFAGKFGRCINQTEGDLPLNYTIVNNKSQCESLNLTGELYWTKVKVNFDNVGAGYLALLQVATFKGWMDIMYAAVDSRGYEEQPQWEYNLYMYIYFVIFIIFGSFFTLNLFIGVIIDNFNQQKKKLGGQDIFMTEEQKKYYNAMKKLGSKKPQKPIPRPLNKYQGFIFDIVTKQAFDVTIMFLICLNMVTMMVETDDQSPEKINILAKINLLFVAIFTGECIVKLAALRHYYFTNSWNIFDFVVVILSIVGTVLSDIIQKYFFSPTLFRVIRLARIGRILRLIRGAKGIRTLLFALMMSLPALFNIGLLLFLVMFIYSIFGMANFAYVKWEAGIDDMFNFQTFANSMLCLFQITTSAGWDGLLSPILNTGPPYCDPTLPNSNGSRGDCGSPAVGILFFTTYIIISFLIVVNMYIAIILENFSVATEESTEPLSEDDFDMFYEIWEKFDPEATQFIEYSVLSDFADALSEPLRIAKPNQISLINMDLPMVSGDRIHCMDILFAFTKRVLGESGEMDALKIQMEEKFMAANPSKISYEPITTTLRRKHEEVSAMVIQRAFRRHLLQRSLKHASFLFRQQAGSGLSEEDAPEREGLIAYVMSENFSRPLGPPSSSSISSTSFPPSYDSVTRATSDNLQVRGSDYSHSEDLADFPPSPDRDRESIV

[2] = target: T1, Sodium channel protein type 5 subunit alpha; assay: Inhibition of human Nav1.5 expressed in CHO-K1 cells preincubated for 3 mins followed by incubation under ventricular condition at sinus rate at 1 Hz with -100 mV holding potential for 25 sec by automated Qpatch electrophysiological recording
[3] = target: T1, Sodium channel protein type 5 subunit alpha; assay: Inhibition of human Nav1.5 expressed in CHO-K1 cells preincubated with compound for 3 mins in presence of ATXII followed by incubation under ventricular condition at sinus rate at 1 Hz with -100 mV holding potential for 25 sec by automated Qpatch electrophysiological recording

C[C@](O)(CS(N)(=O)=O)c1cccc(-c2nnn(Cc3cc(OC(F)(F)F)ccc3F)n2)n1
IC50 [1]: 0.8 µM

C[C@@](O)(CS(N)(=O)=O)c1ccc(F)c(-c2nnn(Cc3cc(OC(F)(F)F)ccc3F)n2)c1
IC50 [2]: > 30 µM
IC50 [1]: 1 µM
IC50 [3]: 11 µM

C[C@](O)(CS(N)(=O)=O)c1ccc(Cl)c(-c2nnn(Cc3cc(OC(F)(F)F)ccc3F)n2)c1
IC50 [2]: 28 µM
IC50 [1]: 1.3 µM
IC50 [3]: 15 µM

C[C@@](O)(CS(N)(=O)=O)c1ccc(Cl)c(-c2nnn(Cc3cc(OC(F)(F)F)ccc3F)n2)c1
IC50 [2]: > 30 µM
IC50 [1]: 1.3 µM
IC50 [3]: 28 µM

C[C@@](O)(CS(N)(=O)=O)c1cccc(-c2nnn(Cc3cc(OC(F)(F)F)ccc3F)n2)n1
IC50 [1]: 1 µM
